Data on 2 compounds can be found in patent US20250354979A1, “DRUG EVALUATION METHOD, REAGENT, AND KIT” (FUJIFILM Corporation, priority 2023, published 2025).

Test [1] deals with human iPS cell-derived myocardial cells. Nature of the test: Heart rate of myocardial cells by MEA extracellular potential, serum-free culture medium without additive. The format is cell-based. The note with it: no pretreatment. As for the experimental part:
(§1) Reference Example 1: Method and results of evaluating effect on heart rate in a case where muscarinic receptor agonist (carbachol) is added to serum-free culture medium Human iPS cell-derived myocardial cells (iCell myocardial cells 2.0, manufactured by FUJIFILM Cellular Dynamics, Inc.) in a frozen state were thawed, suspended in a thawing culture medium (iCell myocardial cell thawing culture medium, manufactured by FUJIFILM Cellular Dynamics, Inc.), and then seeded at a cell density of 50,000 cells per well on a MEA plate (Cyto View MEA 48, manufactured by Axion BioSystems, Inc.). The seeding density of myocardial cells in the vicinity of the electrode was 2,736 cells/mm^2. […]
(§2) On the day of measurement, the MEA plate on which the human iPS cell-derived myocardial cells were cultured was placed in an MEA system (Maestro Pro, manufactured by Axion BioSystems, Inc.), and the extracellular potential was measured after 20 minutes (medium control, carbachol concentration: 0 μmol/L). Subsequently, 0.01 μmol/L of carbachol (manufactured by Tokyo Chemical Industry Co., Ltd.) was added to the MEA plate, and then the extracellular potential was measured after 20 minutes from the addition. Similarly, carbachol was added to give concentrations of 0.1 μmol/L, 1 μmol/L, and 10 μmol/L, and then the extracellular potential was measured at each concentration after 20 minutes from the addition. […]

Test [2] shares this test system. Nature of the test: Heart rate of myocardial cells by MEA, maintenance culture medium containing serum. In kind it is cell-based.
Excerpt: as §1, with “Comparative” for “Reference”, “decrease in” for “effect on”, “by” for “in a case where”, “using maintenance” for “is added to serum-free”, “2,798” for “2,736”
as §2, with “concentration.” for “concentration after 20 minutes from the addition.”

As to `C[N+](C)(C)CCOC(N)=O` [carbachol], the “decrease in heart rate” value in test [1] (carbachol 0.01-10 μmol/L, 20 minutes after each addition, vs medium control) is “up to 15%”; in test [2] (carbachol 0.01-10 μmol/L) it was “No clear decrease in heart rate”.
For the compound `CN1[C@@H]2CC[C@H]1C[C@@H](OC(=O)C(CO)c1ccccc1)C2` (stereo partly shown) [atropine], the “increase in heart rate” value in test [1] (atropine 0.01-1 μmol/L) and in test [2] (atropine 0.01-1 μmol/L) was “No clear increase in heart rate” each time.
